Data reported in ChEMBL document CHEMBL4507263, “Data for DCP probe BAY-474” (2021).

How the values were obtained:
[1] = target: AP2-associated protein kinase 1 (Homo sapiens) (UniProt Q2M2I8); details: Compound concentration 1000.0 nM
[2] = system: Tyrosine-protein kinase ABL1 (Homo sapiens), P00519 [H396P]; details: Compound concentration 1000.0 nM
[3] = target: Activin receptor type-2A (Homo sapiens) (UniProt P27037); details: Compound concentration 1000.0 nM
[4] = target: Tyrosine-protein kinase BTK (Homo sapiens) (UniProt Q06187); details: Compound concentration 1000.0 nM
[5] = target: Death-associated protein kinase 2 (Homo sapiens) (UniProt Q9UIK4); details: Compound concentration 1000.0 nM
[6] = target: Serine/threonine-protein kinase DCLK2 (Homo sapiens) (UniProt Q8N568); details: Compound concentration 1000.0 nM
[7] = target: Epithelial discoidin domain-containing receptor 1 (Homo sapiens) (UniProt Q08345); details: Compound concentration 1000.0 nM
[8] = target: Ephrin type-A receptor 3 (Homo sapiens) (UniProt P29320); details: Compound concentration 1000.0 nM
[9] = system: Receptor-type tyrosine-protein kinase FLT3 (Homo sapiens), P36888 [UNDEFINED MUTATION]; details: Compound concentration 1000.0 nM
[10] = target: Vascular endothelial growth factor receptor 3 (Homo sapiens) (UniProt P35916); details: Compound concentration 1000.0 nM
[11] = target: Mitogen-activated protein kinase kinase kinase kinase 1 (Homo sapiens) (UniProt Q92918); details: Compound concentration 1000.0 nM
[12] = target: Interleukin-1 receptor-associated kinase 3 (Homo sapiens) (UniProt Q9Y616); details: Compound concentration 1000.0 nM
[13] = system: Mast/stem cell growth factor receptor Kit (Homo sapiens), P10721 [D816H]; details: Compound concentration 1000.0 nM
[14] = target: Serine/threonine-protein kinase LATS2 (Homo sapiens) (UniProt Q9NRM7); details: Compound concentration 1000.0 nM
[15] = target: Dual specificity mitogen-activated protein kinase kinase 3 (Homo sapiens) (UniProt P46734); details: Compound concentration 1000.0 nM
[16] = target: Maternal embryonic leucine zipper kinase (Homo sapiens) (UniProt Q14680); details: Compound concentration 1000.0 nM
[17] = target: MAP kinase-interacting serine/threonine-protein kinase 2 (Homo sapiens) (UniProt Q9HBH9); details: Compound concentration 1000.0 nM
[18] = target: Mitogen-activated protein kinase kinase kinase 9 (Homo sapiens) (UniProt P80192); details: Compound concentration 1000.0 nM
[19] = target: Serine/threonine-protein kinase 26 (Homo sapiens) (UniProt Q9P289); details: Compound concentration 1000.0 nM
[20] = target: Serine/threonine-protein kinase Nek4 (Homo sapiens) (UniProt P51957); details: Compound concentration 1000.0 nM
[21] = system: Phosphatidylinositol 4,5-bisphosphate 3-kinase catalytic subunit alpha isoform (Homo sapiens), P42336 [H1047Y]; details: Compound concentration 1000.0 nM
[22] = target: Serine/threonine-protein kinase PLK2 (Homo sapiens) (UniProt Q9NYY3); details: Compound concentration 1000.0 nM
[23] = target: Ribosomal protein S6 kinase alpha-3 (Homo sapiens, UniProt P51812); details: Compound concentration 1000.0 nM
[24] = target: Serine/threonine-protein kinase 36 (Homo sapiens) (UniProt Q9NRP7); details: Compound concentration 1000.0 nM
[25] = target: Vascular endothelial growth factor receptor 2 (Homo sapiens) (UniProt P35968); details: Compound concentration 1000.0 nM
[26] = target: Wee1-like protein kinase (Homo sapiens) (UniProt P30291); details: Compound concentration 1000.0 nM
[27] = target: Serine/threonine-protein kinase 32C (Homo sapiens) (UniProt Q86UX6); details: Compound concentration 1000.0 nM
[28] = target: Death-associated protein kinase 1 (Homo sapiens) (UniProt P53355); experiment: DAPK1 (h) Millipore kinase activity assay; details: Compound concentration 1.0 uM
[29] = target: Interleukin-1 receptor-associated kinase 4 (Homo sapiens) (UniProt Q9NWZ3); experiment: IRAK4 (h) Millipore kinase activity assay; details: Compound concentration 1.0 uM
[30] = target: MAP kinase-activated protein kinase 2 (Homo sapiens) (UniProt P49137); experiment: MAPKAP-K2 (h) Millipore kinase activity assay; details: Compound concentration 1.0 uM
[31] = target: Serine/threonine-protein kinase MRCK beta (Homo sapiens) (UniProt Q9Y5S2); experiment: MRCKbeta (h) Millipore kinase activity assay; details: Compound concentration 1.0 uM
[32] = target: Ribosomal protein S6 kinase alpha-4 (Homo sapiens) (UniProt O75676); experiment: MSK2 (h) Millipore kinase activity assay; details: Compound concentration 1.0 uM
[33] = target: Serine/threonine-protein kinase pim-2 (Homo sapiens) (UniProt Q9P1W9); experiment: Pim-2 (h) Millipore kinase activity assay; details: Compound concentration 1.0 uM
[34] = target: T1, cGMP-dependent protein kinase 1 (Homo sapiens) (UniProt Q13976); experiment: PKG1alpha (h) Millipore kinase activity assay; details: Compound concentration 1.0 uM
T1 sequence (whole entry): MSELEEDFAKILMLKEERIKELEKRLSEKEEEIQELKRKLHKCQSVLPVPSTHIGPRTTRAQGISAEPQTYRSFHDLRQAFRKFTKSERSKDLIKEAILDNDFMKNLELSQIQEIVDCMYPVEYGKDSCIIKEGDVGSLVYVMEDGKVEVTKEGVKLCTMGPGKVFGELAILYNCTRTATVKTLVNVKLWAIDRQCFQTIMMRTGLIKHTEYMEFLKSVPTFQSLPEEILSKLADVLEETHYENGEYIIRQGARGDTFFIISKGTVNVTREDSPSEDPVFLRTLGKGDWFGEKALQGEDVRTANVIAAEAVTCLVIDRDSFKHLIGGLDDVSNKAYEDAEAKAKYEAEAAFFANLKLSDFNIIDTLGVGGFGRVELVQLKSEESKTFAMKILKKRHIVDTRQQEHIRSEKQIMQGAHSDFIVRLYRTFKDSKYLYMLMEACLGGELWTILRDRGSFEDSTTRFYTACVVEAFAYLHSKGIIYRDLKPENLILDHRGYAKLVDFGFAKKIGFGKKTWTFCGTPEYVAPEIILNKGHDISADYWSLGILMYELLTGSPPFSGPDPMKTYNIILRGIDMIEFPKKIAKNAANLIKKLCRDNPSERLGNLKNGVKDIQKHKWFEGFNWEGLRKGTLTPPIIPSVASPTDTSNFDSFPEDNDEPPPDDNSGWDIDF

[35] = target: Beta-2 adrenergic receptor (Homo sapiens) (UniProt P07550); details: Compound concentration 10.0 uM
[36] = target: Sodium-dependent serotonin transporter (Homo sapiens) (UniProt P31645); details: Compound concentration 10.0 uM

Mitogen-activated protein kinase kinase kinase 9 (Homo sapiens), sequence (P80192 whole entry, looked up): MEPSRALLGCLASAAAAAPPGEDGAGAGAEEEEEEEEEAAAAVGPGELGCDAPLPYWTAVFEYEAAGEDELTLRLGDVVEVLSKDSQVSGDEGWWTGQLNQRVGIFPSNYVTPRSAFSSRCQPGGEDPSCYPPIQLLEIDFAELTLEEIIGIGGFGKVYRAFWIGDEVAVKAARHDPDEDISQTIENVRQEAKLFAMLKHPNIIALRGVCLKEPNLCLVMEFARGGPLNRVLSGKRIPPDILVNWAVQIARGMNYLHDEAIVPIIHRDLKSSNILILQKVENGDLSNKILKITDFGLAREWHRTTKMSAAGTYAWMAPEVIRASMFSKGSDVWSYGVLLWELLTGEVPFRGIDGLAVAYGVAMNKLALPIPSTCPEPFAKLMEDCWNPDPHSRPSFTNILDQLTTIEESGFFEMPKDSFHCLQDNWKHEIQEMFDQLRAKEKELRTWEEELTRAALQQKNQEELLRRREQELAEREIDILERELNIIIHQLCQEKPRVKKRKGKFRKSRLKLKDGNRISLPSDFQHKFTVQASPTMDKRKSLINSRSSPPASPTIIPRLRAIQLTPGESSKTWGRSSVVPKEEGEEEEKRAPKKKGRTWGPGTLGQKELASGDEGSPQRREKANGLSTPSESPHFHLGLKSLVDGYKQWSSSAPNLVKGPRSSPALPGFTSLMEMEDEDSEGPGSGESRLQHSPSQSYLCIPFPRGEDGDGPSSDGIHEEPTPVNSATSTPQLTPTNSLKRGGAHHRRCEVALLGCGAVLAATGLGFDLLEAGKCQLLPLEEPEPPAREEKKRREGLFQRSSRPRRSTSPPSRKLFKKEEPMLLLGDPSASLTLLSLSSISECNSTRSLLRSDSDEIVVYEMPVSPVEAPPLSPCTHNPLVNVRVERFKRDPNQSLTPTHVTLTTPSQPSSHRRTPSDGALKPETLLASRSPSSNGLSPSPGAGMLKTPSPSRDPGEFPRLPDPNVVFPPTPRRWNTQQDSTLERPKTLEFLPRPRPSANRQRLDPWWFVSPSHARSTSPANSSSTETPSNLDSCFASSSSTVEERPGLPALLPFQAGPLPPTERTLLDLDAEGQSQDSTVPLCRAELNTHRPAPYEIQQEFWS
Dual specificity mitogen-activated protein kinase kinase 3 (Homo sapiens), sequence (P46734 whole entry): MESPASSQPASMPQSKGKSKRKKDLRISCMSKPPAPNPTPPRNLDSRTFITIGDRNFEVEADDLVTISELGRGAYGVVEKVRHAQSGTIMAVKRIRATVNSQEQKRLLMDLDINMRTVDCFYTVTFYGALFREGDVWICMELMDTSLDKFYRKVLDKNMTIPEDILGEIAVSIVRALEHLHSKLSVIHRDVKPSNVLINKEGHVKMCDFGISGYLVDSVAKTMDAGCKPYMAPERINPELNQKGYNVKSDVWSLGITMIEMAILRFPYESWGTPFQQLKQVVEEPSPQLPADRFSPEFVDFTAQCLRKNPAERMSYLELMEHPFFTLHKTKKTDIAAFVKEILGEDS
Serine/threonine-protein kinase 36 (Homo sapiens), sequence (Q9NRP7 whole entry): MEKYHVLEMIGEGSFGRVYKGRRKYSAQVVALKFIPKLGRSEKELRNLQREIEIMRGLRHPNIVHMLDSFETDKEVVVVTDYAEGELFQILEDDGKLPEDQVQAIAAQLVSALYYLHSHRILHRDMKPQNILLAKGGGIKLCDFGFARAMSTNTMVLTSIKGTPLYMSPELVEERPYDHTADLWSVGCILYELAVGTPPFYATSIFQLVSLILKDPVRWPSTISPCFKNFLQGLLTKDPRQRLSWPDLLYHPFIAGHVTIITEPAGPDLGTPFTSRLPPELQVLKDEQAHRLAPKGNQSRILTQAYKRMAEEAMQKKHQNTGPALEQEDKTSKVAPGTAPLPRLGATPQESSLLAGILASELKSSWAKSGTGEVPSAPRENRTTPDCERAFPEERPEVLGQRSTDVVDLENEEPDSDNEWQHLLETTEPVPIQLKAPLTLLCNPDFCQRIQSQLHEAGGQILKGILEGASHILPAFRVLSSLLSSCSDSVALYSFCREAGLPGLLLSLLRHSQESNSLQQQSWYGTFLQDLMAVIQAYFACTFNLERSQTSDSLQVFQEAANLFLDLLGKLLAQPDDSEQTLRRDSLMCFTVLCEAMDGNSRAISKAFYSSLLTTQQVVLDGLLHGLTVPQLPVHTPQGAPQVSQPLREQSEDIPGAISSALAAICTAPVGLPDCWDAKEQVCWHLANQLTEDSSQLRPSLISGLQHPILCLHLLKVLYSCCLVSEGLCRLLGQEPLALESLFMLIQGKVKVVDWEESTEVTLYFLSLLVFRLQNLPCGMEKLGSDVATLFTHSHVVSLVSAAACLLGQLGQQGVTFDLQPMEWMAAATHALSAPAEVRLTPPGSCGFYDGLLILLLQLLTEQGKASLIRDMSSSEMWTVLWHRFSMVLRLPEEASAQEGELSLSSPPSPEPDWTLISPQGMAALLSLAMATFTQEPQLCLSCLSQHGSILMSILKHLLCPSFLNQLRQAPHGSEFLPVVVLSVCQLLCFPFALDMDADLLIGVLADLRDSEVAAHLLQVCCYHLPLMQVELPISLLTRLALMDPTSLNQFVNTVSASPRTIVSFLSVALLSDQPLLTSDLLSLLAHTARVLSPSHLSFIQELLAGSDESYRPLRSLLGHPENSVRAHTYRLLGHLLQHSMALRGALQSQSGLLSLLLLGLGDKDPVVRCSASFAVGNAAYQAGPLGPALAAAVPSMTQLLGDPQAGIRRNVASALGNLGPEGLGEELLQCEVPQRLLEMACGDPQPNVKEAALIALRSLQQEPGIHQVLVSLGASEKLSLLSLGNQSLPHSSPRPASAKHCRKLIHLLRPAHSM
Wee1-like protein kinase (Homo sapiens), sequence (P30291 whole entry, looked up): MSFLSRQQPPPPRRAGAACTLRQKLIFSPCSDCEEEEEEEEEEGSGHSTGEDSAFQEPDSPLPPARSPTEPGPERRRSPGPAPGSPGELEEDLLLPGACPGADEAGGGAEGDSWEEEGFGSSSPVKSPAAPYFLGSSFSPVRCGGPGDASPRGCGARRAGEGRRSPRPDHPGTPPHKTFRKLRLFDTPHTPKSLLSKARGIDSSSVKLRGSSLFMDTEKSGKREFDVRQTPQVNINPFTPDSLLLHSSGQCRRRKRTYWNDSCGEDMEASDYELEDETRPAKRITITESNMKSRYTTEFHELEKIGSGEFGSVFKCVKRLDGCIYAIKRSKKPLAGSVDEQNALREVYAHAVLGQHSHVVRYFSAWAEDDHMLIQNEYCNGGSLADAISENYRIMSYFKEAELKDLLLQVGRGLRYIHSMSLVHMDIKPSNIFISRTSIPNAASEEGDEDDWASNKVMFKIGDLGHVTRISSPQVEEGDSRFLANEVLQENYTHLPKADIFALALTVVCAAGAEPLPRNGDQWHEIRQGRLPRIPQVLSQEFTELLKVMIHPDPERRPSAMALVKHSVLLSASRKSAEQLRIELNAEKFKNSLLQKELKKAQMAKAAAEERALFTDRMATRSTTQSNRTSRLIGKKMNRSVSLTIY
Ribosomal protein S6 kinase alpha-4 (Homo sapiens), sequence (O75676 whole entry, looked up): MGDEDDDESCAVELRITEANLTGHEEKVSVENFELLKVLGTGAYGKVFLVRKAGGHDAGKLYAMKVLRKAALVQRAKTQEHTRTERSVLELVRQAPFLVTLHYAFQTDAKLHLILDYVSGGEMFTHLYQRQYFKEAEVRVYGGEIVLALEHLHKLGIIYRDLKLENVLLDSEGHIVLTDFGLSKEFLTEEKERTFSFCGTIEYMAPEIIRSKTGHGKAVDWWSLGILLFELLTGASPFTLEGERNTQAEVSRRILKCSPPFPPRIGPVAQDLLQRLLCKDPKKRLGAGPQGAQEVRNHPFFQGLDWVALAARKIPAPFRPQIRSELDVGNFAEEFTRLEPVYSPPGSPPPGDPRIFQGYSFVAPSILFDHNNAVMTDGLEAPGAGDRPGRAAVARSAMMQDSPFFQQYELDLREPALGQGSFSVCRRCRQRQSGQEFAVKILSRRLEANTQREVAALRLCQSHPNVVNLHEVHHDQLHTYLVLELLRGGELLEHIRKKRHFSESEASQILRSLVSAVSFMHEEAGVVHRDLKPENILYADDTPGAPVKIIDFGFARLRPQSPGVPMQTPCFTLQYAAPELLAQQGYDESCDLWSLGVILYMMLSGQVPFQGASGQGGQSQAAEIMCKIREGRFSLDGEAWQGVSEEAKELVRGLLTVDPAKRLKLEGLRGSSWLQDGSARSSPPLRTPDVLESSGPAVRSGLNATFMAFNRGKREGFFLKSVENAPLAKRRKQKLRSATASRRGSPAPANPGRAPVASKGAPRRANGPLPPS
MAP kinase-interacting serine/threonine-protein kinase 2 (Homo sapiens), sequence (Q9HBH9 whole entry, looked up): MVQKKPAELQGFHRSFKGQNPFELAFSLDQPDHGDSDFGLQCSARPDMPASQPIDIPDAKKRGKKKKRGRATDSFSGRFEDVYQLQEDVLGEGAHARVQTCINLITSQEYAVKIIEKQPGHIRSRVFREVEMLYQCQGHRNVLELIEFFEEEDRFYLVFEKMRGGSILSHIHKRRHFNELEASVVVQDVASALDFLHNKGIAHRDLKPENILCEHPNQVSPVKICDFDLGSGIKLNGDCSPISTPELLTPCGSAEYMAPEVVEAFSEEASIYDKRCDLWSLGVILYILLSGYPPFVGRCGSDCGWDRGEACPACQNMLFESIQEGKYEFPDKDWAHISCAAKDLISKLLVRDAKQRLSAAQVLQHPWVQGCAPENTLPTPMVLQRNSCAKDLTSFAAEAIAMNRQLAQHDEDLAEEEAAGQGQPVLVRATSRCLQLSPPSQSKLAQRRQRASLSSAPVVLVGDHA
Serine/threonine-protein kinase pim-2 (Homo sapiens), sequence (Q9P1W9 whole entry, looked up): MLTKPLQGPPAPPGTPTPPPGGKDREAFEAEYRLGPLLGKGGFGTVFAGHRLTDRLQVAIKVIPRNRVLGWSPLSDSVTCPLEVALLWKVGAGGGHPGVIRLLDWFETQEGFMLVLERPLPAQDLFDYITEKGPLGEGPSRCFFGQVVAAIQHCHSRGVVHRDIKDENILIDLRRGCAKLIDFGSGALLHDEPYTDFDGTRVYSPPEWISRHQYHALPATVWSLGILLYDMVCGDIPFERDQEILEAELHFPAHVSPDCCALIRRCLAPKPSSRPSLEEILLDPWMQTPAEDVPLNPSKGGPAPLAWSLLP

For CC1=C(C#N)[C@@H](c2ccc3[nH]nc(C)c3c2)C(C#N)=C(c2ccc(Cl)cc2)N1 [BAY-827], the residual activity [1] was 100%, the residual activity [2] was 79.9% and the residual activity [3] was 100%. It also gave a residual activity [4] of 99.9%, a residual activity [5] of 100% and a residual activity [6] of 97.9%. The residual activity [7] was 84.5%, the residual activity [8] was 100% and the residual activity [9] was 93.9%. It also gave a residual activity [10] of 89.5%, a residual activity [11] of 93.1% and a residual activity [12] of 96.4%. For the same molecule, the residual activity [13] was 84.3%, the residual activity [14] was 100% and the residual activity [15] was 53.5%. For the same molecule, the residual activity [16] was 100%, the residual activity [17] was 90.6% and the residual activity [18] was 90.4%. It also gave a residual activity [19] of 100%, a residual activity [20] of 90.1% and a residual activity [21] of 35.8%. It also gave a residual activity [22] of 100%, a residual activity [23] of 86.2% and a residual activity [24] of 95.9%. It also gave a residual activity [25] of 96.3%, a residual activity [26] of 100% and a residual activity [27] of 91.2%.
CC1=C(C#N)C(c2ccc3[nH]nc(C)c3c2)C(C#N)=C(C)N1 [BAY-474] showed an inhibition [28] of 0%, an inhibition [29] of 0% and an inhibition [30] of -2%. The inhibition [31] was -7%, the inhibition [32] was -1% and the inhibition [33] was -3%. It also gave an inhibition [34] of 7%, an inhibition [35] of 4% and an inhibition [36] of 9%.
